Laboratory results: US20250026721A1, “COMPOUNDS AND METHODS FOR MODULATING RAS-PI3K” (Vividion Therapeutics, Inc., priority 2023, published 2025)

Key:
PIK3CA = biological target: T1, PIK3CA (Homo sapiens, UniProt P42336); assay: In vitro ELISA target engagement assay for PIK3CA in Jurkat cellular lysate (competition with PIK3CA Biotin Probe); format: binding; settings: 1 hour at rt, then 500 nM PIK3CA Biotin Probe, read-out: Elisa Target Engagement Assay (TE50)
T1 construct: endogenous in cells; host or cells: Jurkat cell lysate
Procedure, shortened: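 Competition format in Jurkat lysate: compound (serial dilutions, top 200 μM) for 1 h at rt, then 500 nM final biotinylated PIK3CA probe for 1 h at rt. Sandwich ELISA with capture antibody and Neutravidin-HRP luminescence read-out measured probe-labelled PIK3CA, giving TE50.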

[1] = tested on: pAKT(S473) in FaDu cell line; assay: In vitro Phospho-AKT(S473) HTRF analysis in FaDu cells; format: cell-based; settings: Homo sapiens, 0.5 h; for IC50: FaDu cells, 30 minutes at 37° C.; for Emax: FaDu, read-out: FaDu pAKT Imax % control
Procedure: Example 5. In Vitro Phosgho-AKT(S473) Analysis
Functional activity of the compounds to inhibit pAKT were assessed in FaDu or H358 cell lines as indicated below.
• Complete Media • FBS, Corning catalog #35-010-CV • Anti-Anti, Gibco catalog #15240-062 • 96 well plate, Corning catalog #3610 • TrypLE, Gibco catalog #12604013 • Phospho-AKT(S473) HTRF kit, Cisbio catalog #64AKSPET
Cells were detached from the tissue culture flask with TrypLE. The cells were pelleted at 500×g for 5 min, TrypLe was removed and then resuspended in the necessary volume of media+1% FBS to give the appropriate cell density (17,500 cells/mL for FaDu; 20,000 cells/mL for H358). 100 μL of cell suspension/well was dispensed into the 96-well plate while keeping the outer wells of the plate free of cells and filled with PBS to prevent evaporation of interior wells. The plate was incubated at 37° C. and allowed to adhere overnight. The cells were treated with a dose response of compound and incubated at 37° C. for 30 minutes. The cells were then processed and pAKT(S473) levels were assessed following the specifications of the Cisbio HTRF kit.

PIK3CA_C242 = biological target: T2, PIK3CA_C242 (Homo sapiens, UniProt P42336); assay: Proteomic TE50 (IA-DTB / TMT mass spectrometry) in Jurkat cell lysate; format: binding; settings: 1 hour at rt, 7-point dose response
T2 construct: endogenous in cells; host or cells: Jurkat cell lysate
Procedure, shortened: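 Cysteine engagement was read by targeted TMT MS3 of the IA-DTB-labelled, streptavidin-enriched C242 tryptic peptide. Beforehand, Jurkat lysate was exposed to a 7-point 1:5 compound series for 1 h at rt, then to 200 μM IA-DTB for 1 h. Reporter S/N curves gave TE50.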

T2 sequence (P42336 whole entry): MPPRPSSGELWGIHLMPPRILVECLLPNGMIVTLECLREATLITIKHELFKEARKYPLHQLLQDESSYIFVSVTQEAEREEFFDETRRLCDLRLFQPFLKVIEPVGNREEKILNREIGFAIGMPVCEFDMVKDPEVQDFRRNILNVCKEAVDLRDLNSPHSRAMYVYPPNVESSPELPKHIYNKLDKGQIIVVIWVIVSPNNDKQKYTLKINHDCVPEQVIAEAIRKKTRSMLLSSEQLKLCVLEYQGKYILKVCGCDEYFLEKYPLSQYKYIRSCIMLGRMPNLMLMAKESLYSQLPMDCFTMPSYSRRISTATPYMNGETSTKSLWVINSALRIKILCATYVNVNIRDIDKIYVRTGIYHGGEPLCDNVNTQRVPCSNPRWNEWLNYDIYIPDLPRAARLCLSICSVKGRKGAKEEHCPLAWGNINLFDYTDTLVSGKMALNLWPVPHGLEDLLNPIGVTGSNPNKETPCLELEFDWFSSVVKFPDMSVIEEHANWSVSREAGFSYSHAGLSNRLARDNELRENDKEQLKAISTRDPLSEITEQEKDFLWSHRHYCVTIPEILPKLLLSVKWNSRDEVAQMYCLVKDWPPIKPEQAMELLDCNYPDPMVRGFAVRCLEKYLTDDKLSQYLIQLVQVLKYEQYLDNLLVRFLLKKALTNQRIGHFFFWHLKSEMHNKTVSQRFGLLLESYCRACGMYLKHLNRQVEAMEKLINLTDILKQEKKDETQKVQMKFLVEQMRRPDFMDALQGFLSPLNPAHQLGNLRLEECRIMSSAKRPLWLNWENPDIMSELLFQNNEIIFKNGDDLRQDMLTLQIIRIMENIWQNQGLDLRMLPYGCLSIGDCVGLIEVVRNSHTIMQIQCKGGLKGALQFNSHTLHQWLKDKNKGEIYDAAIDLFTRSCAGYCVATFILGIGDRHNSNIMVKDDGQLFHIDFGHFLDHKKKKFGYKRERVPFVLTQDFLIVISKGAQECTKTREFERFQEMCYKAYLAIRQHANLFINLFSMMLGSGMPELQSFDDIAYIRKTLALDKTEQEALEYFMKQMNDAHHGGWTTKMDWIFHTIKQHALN
T2 sequence (P27986 whole entry partner): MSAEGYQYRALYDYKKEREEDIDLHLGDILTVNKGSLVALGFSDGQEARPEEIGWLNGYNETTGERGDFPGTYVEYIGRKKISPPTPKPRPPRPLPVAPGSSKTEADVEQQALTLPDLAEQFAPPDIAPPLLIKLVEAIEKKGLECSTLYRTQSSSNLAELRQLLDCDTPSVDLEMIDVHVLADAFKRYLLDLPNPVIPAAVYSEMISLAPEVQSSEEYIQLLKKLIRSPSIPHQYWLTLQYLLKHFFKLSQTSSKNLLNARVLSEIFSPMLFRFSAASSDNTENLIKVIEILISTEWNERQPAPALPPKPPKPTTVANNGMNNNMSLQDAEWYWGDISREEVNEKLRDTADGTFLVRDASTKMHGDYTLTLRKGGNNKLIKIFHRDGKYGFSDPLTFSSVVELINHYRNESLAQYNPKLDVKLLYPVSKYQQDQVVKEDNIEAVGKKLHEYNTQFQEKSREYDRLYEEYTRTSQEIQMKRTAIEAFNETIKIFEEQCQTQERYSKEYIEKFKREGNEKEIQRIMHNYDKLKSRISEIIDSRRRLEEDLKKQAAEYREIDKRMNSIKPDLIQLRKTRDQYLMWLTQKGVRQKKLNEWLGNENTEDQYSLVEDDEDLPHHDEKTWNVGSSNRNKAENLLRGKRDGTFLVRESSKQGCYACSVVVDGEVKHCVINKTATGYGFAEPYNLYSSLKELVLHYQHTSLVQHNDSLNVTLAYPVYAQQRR
T1 sequence (P42336 whole entry): as the sequence (P42336 whole entry) above
T1 sequence (P27986 whole entry partner): as the sequence (P27986 whole entry partner) above

Row | Compound | IC50 (PIK3CA) [nM] | IC50 [1] [nM] | Emax [1] [%] | IC50 (PIK3CA_C242) [nM]
1 | [2H]C([2H])([2H])Oc1ccc(S(=O)(=O)N2CC[C@@](F)(C(=O)N[C@H](C)/C=C\S(C)(=O)=O)C[C@H]2C)c(-c2ccccc2Cl)c1 [Compound 301, (2R,4S)-1-((2′-chloro-5-(methoxy-d3)-[1,1′-biphenyl]-2-yl)sulfonyl)-4-fluoro-2-methyl-N-((R,Z)-4-(methylsulfonyl)but-3-en-2-yl)piperidine-4-carboxamide] | 77 | 117 | 99.8 | 
2 | CCOc1ccc(S(=O)(=O)N2CC[C@@](F)(C(=O)N[C@H](C)/C=C/C(=O)N3CC(F)(F)C3)C[C@H]2C)c(-c2ccccc2Cl)c1 [Compound 298, (2R,4S)-1-((2′-chloro-5-ethoxy-[1,1′-biphenyl]-2-yl)sulfonyl)-N-((R,E)-5-(3,3-difluoroazetidin-1-yl)-5-oxopent-3-en-2-yl)-4-fluoro-2-methylpiperidine-4-carboxamide] | 720 | 322 | 102 | 
3 | C[C@H](/C=C\S(C)(=O)=O)NC(=O)C1(F)CCN(S(=O)(=O)c2ccc(Br)cc2-c2cccc(Br)c2)CC1 [Compound 58, (R,Z)-1-((3′,5-dibromo-[1,1′-biphenyl]-2-yl)sulfonyl)-4-fluoro-N-(4-(methylsulfonyl)but-3-en-2-yl)piperidine-4-carboxamide] | 850 | 743 | 97.5 | 
4 | Cc1cccc([C@@H]2CN(CC(F)(F)F)C[C@@H]2C(=O)N2CCC[C@](F)(C(=O)N[C@H](C)/C=C\S(C)(=O)=O)CC2)c1Cl (single isomer, unassigned) [Compound 172, (R)-1-((3*R,4*R)-4-(2-chloro-3-methylphenyl)-1-(2,2,2-trifluoroethyl)pyrrolidine-3-carbonyl)-4-fluoro-N-((R,Z)-4-(methylsulfonyl)but-3-en-2-yl)azepane-4-carboxamide] | 580 | 505 | 97.9 | 
5 | O=C(/C=C/CNC(=O)C1(F)CCN(S(=O)(=O)c2ccc(Br)cc2-c2ccccc2Cl)CC1)N1CC(F)(F)C1 [Compound 282, (E)-1-((5-bromo-2′-chloro-[1,1′-biphenyl]-2-yl)sulfonyl)-N-(4-(3,3-difluoroazetidin-1-yl)-4-oxobut-2-en-1-yl)-4-fluoropiperidine-4-carboxamide] | 140 | 367 |  | 
6 | C[C@H]1C[C@](F)(C(=O)N[C@@H]2C=CS(=O)(=O)C2)CCN1C(=O)[C@H]1CN(CC(F)(F)F)C[C@H]1c1ccccc1Cl (single isomer, unassigned) [Compound 174, (2*S,4*S)-1-((3R,4R)-4-(2-chlorophenyl)-1-(2,2,2-trifluoroethyl)pyrrolidine-3-carbonyl)-N-((R)-1,1-dioxido-2,3-dihydrothiophen-3-yl)-4-fluoro-2-methylpiperidine-4-carboxamide] | 276 | 168 | 91.8 | 
7 | CC[C@H](/C=C\S(C)(=O)=O)NC(=O)[C@@]1(F)CCCN(C(=O)[C@H]2CN(CC(F)(F)F)C[C@H]2c2ccccc2Cl)CC1 [Compound 198, (R)-1-((3R,4R)-4-(2-chlorophenyl)-1-(2,2,2-trifluoroethyl)pyrrolidine-3-carbonyl)-4-fluoro-N-((R,Z)-1-(methylsulfonyl)pent-1-en-3-yl)azepane-4-carboxamide] | 540 | 472 | 95.2 | 
8 | C[C@@H](/C=C\S(C)(=O)=O)NC(=O)C1(F)CCN(S(=O)(=O)c2cnc(C(F)(F)F)cc2-c2cccc(F)c2Cl)CC1 [Compound 210, (S,Z)-1-((4-(2-chloro-3-fluorophenyl)-6-(trifluoromethyl)pyridin-3-yl)sulfonyl)-4-fluoro-N-(4-(methylsulfonyl)but-3-en-2-yl)piperidine-4-carboxamide] | 110 | 214 |  | 
9 | C[C@H](/C=C\S(C)(=O)=O)NC(=O)[C@]1(F)CCN(S(=O)(=O)c2ccc(Br)cc2-c2ccccc2Cl)[C@H](C)C1 [Compound 143, (2R,4S)-1-((5-bromo-2′-chloro-[1,1′-biphenyl]-2-yl)sulfonyl)-4-fluoro-2-methyl-N-((R,Z)-4-(methylsulfonyl)but-3-en-2-yl)piperidine-4-carboxamide] | 66.5 | 117 | 111 | 
10 | CC(C)(/C=C/C(=O)N1CC(F)(F)C1)NC(=O)C1(F)CCN(S(=O)(=O)c2ccc(C(F)(F)F)cc2-c2ccccc2Cl)CC1 [Compound 249, (E)-1-((2′-chloro-5-(trifluoromethyl)-[1,1′-biphenyl]-2-yl)sulfonyl)-N-(5-(3,3-difluoroazetidin-1-yl)-2-methyl-5-oxopent-3-en-2-yl)-4-fluoropiperidine-4-carboxamide] | 620 | 1200 | 82.8 | 
11 | CC(=O)c1ccc(S(=O)(=O)N2CCC(F)(C(=O)N[C@H](C)/C=C/C(=O)N3CC(F)(F)C3)CC2)c(-c2ccccc2Cl)c1 [Compound 138, (R,E)-1-((5-acetyl-2′-chloro-[1,1′-biphenyl]-2-yl)sulfonyl)-N-(5-(3,3-difluoroazetidin-1-yl)-5-oxopent-3-en-2-yl)-4-fluoropiperidine-4-carboxamide] | 340 | 292 | 93.5 | 
12 | COc1ccc(S(=O)(=O)N2CCC[C@](F)(C(=O)N[C@H](C)/C=C\S(C)(=O)=O)CC2)c(-c2ccccc2Cl)c1 [Compound 312, (R)-1-((2′-chloro-5-methoxy-[1,1′-biphenyl]-2-yl)sulfonyl)-4-fluoro-N-((R,Z)-4-(methylsulfonyl)but-3-en-2-yl)azepane-4-carboxamide] | 80 | 140 |  | 
13 | C[C@H](/C=C\S(C)(=O)=O)NC(=O)C1(F)CCN(C(=O)[C@H]2CN(CC(F)F)C[C@H]2c2ccccc2Cl)CC1 [Compound 206, 1-((3R,4R)-4-(2-chlorophenyl)-1-(2,2-difluoroethyl)pyrrolidine-3-carbonyl)-4-fluoro-N-((R,Z)-4-(methylsulfonyl)but-3-en-2-yl)piperidine-4-carboxamide] | 800 | 718 | 106 | 
14 | O=C([C@H]1CN(CC(F)(F)F)C[C@H]1c1ccccc1Cl)N1CCC[C@](F)(C(=O)N[C@@H]2C=CS(=O)(=O)C2)CC1 [Compound 176, (R)-1-((3R,4R)-4-(2-chlorophenyl)-1-(2,2,2-trifluoroethyl)pyrrolidine-3-carbonyl)-N-((R)-1,1-dioxido-2,3-dihydrothiophen-3-yl)-4-fluoroazepane-4-carboxamide] | 750 | 679 | 83.3 | 
15 | C[C@@H](/C=C\S(C)(=O)=O)NC(=O)C1(F)CCN(S(=O)(=O)c2ccc(Br)cc2-c2ccccc2Cl)CC1 [Compound 62, (S,Z)-1-((5-bromo-2′-chloro-[1,1′-biphenyl]-2-yl)sulfonyl)-4-fluoro-N-(4-(methylsulfonyl)but-3-en-2-yl)piperidine-4-carboxamide] |  | 27.5 | 85.2 | 
16 | CCc1ccc(S(=O)(=O)N2CCC(F)(C(=O)N[C@H](C)/C=C\S(C)(=O)=O)CC2)c(-c2ccccc2)c1 [Compound 112, (R,Z)-1-((5-ethyl-[1,1′-biphenyl]-2-yl)sulfonyl)-4-fluoro-N-(4-(methylsulfonyl)but-3-en-2-yl)piperidine-4-carboxamide] | 780 |  |  | 660
17 | C[C@@H](/C=C\S(C)(=O)=O)NC(=O)C1(F)CCN(S(=O)(=O)c2ccc(Cl)cc2-c2cccc(OCc3ccccn3)c2)CC1 [Compound 269, (S,Z)-1-((5-chloro-3′-(pyridin-2-ylmethoxy)-[1,1′-biphenyl]-2-yl)sulfonyl)-4-fluoro-N-(4-(methylsulfonyl)but-3-en-2-yl)piperidine-4-carboxamide] | 90 |  |  | 63
18 | Cc1ccccc1-c1cc(N(C)C)ccc1S(=O)(=O)N1CCC(F)(C(=O)N[C@H](C)/C=C\S(C)(=O)=O)CC1 [Compound 93, (R,Z)-1-((5-(dimethylamino)-2′-methyl-[1,1′-biphenyl]-2-yl)sulfonyl)-4-fluoro-N-(4-(methylsulfonyl)but-3-en-2-yl)piperidine-4-carboxamide] | 150 |  |  | 75.5
19 | CCCNC(=O)c1cccc(-c2cc(Cl)ccc2S(=O)(=O)N2CCC(F)(C(=O)N[C@@H](C)/C=C\S(C)(=O)=O)CC2)c1 [Compound 279, (S,Z)-1-((5-chloro-3′-(propylcarbamoyl)-[1,1′-biphenyl]-2-yl)sulfonyl)-4-fluoro-N-(4-(methylsulfonyl)but-3-en-2-yl)piperidine-4-carboxamide] | 1000 |  |  | 1530
